Laboratory results reported in ChEMBL document CHEMBL1909046, “DrugMatrix in vitro pharmacology data”.

Experiments:
[1] = target: Epidermal growth factor receptor (Homo sapiens, UniProt P00533); assay: DRUGMATRIX: Protein Tyrosine Kinase, EGF Receptor enzyme inhibition (substrate: Poly(Glu:Tyr)); assay type: cell-based, Insect cells; details: insect cells; Not Active = under 50% inhibition at 10 µM
[2] = target: T1, Alpha-2A adrenergic receptor (Homo sapiens, UniProt P08913); assay type: cell membranes, Sf9, Membrane; details: sf9; further: in other assays of this panel Not Active means under 50% inhibition at 10 µM
T1 sequence (P08913 whole entry): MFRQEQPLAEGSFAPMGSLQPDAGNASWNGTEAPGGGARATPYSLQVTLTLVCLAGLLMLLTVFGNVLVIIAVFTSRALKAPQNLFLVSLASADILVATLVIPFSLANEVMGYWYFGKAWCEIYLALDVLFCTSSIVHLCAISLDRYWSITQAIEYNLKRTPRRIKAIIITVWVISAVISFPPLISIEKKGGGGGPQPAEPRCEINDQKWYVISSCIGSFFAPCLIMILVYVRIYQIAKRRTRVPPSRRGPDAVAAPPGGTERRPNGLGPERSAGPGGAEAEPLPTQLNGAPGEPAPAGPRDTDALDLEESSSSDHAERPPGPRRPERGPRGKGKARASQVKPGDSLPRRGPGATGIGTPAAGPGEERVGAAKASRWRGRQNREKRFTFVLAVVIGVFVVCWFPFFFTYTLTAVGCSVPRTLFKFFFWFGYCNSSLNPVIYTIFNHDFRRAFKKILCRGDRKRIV

[3] = DRUGMATRIX: Purinergic P2X radioligand binding (ligand: [3H] alpha, beta-Methylene-ATP); assay type: cell membranes, Oryctolagus cuniculus, New Zealand albino, Urinary bladder, Membrane; details: Not Active = under 50% inhibition at 10 µM
Cannabinoid receptor 1 = Cannabinoid receptor 1 (Homo sapiens, UniProt P21554); assay type: cell membranes, Membrane; details: chem-1; further: in other assays of this panel Not Active means under 50% inhibition at 10 µM
Sequence of Cannabinoid receptor 1 (P21554 whole entry): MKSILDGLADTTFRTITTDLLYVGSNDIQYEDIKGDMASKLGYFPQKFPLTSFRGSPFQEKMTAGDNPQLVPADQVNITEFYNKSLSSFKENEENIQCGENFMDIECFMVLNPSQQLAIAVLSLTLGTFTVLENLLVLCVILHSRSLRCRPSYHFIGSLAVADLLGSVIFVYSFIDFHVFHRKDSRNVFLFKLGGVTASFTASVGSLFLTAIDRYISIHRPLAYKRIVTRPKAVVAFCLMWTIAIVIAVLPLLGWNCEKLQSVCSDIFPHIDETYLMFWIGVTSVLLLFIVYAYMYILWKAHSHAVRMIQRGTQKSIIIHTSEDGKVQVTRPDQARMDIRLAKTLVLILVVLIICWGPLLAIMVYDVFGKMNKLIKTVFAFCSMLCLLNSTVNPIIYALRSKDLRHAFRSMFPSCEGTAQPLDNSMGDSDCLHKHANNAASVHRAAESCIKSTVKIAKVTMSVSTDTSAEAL

[4] = target: Sodium-dependent dopamine transporter (Homo sapiens, UniProt Q01959); assay: DRUGMATRIX: Dopamine Transporter radioligand binding (ligand: [125I] RTI-55); assay type: cell membranes, CHO-K1, Membrane; details: cho-k1; Not Active = under 50% inhibition at 10 µM
Sequence of Sodium-dependent dopamine transporter (Q01959 whole entry): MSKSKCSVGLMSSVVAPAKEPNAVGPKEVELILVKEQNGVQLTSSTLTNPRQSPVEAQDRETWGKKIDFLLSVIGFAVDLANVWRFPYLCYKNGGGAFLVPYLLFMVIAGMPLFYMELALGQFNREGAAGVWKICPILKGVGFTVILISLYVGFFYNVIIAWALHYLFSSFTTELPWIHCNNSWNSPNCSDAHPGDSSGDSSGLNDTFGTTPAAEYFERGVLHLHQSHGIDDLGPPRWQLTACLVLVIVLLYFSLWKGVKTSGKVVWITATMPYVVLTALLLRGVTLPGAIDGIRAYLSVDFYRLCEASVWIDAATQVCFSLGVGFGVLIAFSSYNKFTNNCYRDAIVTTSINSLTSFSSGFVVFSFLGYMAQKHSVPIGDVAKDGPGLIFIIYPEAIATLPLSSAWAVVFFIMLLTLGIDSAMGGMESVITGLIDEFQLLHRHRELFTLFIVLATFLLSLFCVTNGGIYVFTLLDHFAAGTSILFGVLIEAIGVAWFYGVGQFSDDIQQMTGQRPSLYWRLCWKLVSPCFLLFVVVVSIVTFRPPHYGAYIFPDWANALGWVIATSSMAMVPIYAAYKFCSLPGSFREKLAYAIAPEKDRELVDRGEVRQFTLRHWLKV

[5] = DRUGMATRIX: GABAA, Chloride Channel, TBOB radioligand binding (ligand: [3H] TBOB); assay type: cell membranes, Rattus norvegicus, Wistar, Cerebral cortex, Membrane; details: Not Active = under 50% inhibition at 10 µM
Adenosine receptor A1 = target: T2, Adenosine receptor A1 (Homo sapiens, UniProt P30542); assay type: cell membranes, CHO, Membrane; details: cho;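 further: radioligand binding assay at the adenosine A1 receptor, with DPCPX serving as the labelled ligand; in other assays of this panel Not Active means under 50% inhibition at 10 µM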
T2 sequence (P30542 whole entry): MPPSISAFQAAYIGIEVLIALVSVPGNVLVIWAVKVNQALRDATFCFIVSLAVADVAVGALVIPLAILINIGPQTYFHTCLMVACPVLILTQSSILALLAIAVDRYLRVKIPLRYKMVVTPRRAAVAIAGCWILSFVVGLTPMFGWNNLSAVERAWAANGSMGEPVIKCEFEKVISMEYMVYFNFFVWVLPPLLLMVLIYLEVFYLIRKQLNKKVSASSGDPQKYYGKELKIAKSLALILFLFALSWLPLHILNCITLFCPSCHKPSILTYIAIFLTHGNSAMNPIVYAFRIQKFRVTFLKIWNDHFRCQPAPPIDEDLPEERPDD

Cathepsin G = target: T3, Cathepsin G (Homo sapiens, UniProt P08311); assay type: tissue-based; details: neutrophil;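 further: inhibition of Cathepsin G enzyme activity, tested on an AMC-conjugated peptide substrate; in other assays of this panel Not Active means under 50% inhibition at 10 µM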
T3 sequence (P08311 whole entry): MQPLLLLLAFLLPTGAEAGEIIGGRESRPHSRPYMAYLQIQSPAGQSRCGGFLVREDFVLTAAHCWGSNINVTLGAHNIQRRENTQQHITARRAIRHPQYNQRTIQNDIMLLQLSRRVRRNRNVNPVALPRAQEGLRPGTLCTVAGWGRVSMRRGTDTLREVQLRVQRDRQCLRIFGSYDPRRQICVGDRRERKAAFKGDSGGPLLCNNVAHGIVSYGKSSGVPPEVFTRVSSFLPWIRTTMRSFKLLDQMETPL

Substance-P receptor = Substance-P receptor (Homo sapiens, UniProt P25103); assay type: cell membranes, CHO, Membrane; details: cho; further: in other assays of this panel Not Active means under 50% inhibition at 10 µM
Sequence of Substance-P receptor (P25103 whole entry): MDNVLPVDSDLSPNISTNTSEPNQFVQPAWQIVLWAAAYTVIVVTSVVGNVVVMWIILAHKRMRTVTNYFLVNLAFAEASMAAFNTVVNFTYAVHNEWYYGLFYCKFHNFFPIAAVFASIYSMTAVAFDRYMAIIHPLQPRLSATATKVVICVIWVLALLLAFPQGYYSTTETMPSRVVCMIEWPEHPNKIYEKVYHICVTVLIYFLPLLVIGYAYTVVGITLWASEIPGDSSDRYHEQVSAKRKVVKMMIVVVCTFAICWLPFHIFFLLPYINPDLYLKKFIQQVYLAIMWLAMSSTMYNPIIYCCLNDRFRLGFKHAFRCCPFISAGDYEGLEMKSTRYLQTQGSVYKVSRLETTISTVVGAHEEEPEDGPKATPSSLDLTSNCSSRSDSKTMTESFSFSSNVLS

Glucocorticoid receptor = target: T4, Glucocorticoid receptor (Homo sapiens, UniProt P04150); details: hela s3; further: in other assays of this panel Not Active means under 50% inhibition at 10 µM
T4 sequence (P04150 whole entry): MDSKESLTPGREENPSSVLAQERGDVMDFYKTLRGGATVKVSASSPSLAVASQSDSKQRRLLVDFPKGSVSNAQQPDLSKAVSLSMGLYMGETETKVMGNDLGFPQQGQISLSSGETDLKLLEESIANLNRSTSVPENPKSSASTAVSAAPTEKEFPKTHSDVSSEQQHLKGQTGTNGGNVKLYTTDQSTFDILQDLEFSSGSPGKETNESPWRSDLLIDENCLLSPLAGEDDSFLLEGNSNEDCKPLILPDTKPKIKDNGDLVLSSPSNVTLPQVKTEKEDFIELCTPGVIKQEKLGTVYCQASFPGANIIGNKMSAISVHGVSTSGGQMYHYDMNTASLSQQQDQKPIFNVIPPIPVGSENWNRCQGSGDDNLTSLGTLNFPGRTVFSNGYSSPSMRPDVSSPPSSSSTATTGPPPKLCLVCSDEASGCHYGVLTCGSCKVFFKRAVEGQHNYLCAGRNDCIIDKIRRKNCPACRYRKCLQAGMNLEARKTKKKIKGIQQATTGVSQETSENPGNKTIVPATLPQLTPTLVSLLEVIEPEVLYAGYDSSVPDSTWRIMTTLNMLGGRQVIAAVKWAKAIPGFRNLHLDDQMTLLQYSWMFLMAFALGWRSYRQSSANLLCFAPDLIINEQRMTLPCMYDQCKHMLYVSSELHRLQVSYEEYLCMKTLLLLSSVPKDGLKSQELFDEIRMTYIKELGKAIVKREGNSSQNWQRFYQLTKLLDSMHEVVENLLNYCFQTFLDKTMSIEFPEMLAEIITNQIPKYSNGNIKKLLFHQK

[6] = DRUGMATRIX: Sigma2 radioligand binding (ligand: [3H] Ifenprodil); assay type: cell membranes, Rattus norvegicus, Wistar, Brain, Membrane; details: Not Active = under 50% inhibition at 10 µM
[7] = target: C-C chemokine receptor type 5 (Homo sapiens, UniProt P51681); assay type: cell membranes, Membrane; details: hek293; further: in other assays of this panel Not Active means under 50% inhibition at 10 µM
Sequence of C-C chemokine receptor type 5 (P51681 whole entry): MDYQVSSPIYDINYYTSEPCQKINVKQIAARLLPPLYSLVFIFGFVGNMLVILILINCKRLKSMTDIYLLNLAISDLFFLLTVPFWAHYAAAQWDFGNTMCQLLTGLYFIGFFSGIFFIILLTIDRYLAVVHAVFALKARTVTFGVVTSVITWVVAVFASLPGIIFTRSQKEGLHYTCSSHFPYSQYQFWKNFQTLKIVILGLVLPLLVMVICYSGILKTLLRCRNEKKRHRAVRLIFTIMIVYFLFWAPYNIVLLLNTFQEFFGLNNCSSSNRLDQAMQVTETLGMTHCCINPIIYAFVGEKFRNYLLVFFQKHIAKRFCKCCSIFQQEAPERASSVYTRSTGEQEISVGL

Carbonic anhydrase 2 = Carbonic anhydrase 2 (Homo sapiens, UniProt P00918); assay: DRUGMATRIX: Carbonic Anhydrase II enzyme inhibition (substrate: 4-Nitrophenyl acetate (4-NPA)); assay type: tissue-based, Erythrocyte; details: erythrocyte; Not Active = under 50% inhibition at 10 µM
[8] = DRUGMATRIX: Imidazoline I2, Central radioligand binding (ligand: [3H] Idazoxan); assay type: cell membranes, Rattus norvegicus, Wistar, Cerebral cortex, Membrane; details: Not Active = under 50% inhibition at 10 µM
[9] = target: 5-hydroxytryptamine receptor 6 (Homo sapiens, UniProt P50406); assay type: cell membranes, HeLa, Membrane; details: hela; further: in other assays of this panel Not Active means under 50% inhibition at 10 µM
Sequence of 5-hydroxytryptamine receptor 6 (P50406 whole entry): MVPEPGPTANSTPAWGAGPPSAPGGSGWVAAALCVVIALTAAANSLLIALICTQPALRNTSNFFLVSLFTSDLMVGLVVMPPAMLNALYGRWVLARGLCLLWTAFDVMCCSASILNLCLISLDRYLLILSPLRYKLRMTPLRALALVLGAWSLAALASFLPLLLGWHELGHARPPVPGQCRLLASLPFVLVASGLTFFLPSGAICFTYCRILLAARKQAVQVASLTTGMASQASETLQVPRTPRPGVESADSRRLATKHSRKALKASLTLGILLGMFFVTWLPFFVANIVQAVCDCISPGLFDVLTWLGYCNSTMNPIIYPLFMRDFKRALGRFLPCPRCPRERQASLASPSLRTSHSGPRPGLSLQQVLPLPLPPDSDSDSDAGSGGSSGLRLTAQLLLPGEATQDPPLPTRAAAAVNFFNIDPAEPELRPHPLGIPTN

Sequence of Epidermal growth factor receptor (P00533 whole entry): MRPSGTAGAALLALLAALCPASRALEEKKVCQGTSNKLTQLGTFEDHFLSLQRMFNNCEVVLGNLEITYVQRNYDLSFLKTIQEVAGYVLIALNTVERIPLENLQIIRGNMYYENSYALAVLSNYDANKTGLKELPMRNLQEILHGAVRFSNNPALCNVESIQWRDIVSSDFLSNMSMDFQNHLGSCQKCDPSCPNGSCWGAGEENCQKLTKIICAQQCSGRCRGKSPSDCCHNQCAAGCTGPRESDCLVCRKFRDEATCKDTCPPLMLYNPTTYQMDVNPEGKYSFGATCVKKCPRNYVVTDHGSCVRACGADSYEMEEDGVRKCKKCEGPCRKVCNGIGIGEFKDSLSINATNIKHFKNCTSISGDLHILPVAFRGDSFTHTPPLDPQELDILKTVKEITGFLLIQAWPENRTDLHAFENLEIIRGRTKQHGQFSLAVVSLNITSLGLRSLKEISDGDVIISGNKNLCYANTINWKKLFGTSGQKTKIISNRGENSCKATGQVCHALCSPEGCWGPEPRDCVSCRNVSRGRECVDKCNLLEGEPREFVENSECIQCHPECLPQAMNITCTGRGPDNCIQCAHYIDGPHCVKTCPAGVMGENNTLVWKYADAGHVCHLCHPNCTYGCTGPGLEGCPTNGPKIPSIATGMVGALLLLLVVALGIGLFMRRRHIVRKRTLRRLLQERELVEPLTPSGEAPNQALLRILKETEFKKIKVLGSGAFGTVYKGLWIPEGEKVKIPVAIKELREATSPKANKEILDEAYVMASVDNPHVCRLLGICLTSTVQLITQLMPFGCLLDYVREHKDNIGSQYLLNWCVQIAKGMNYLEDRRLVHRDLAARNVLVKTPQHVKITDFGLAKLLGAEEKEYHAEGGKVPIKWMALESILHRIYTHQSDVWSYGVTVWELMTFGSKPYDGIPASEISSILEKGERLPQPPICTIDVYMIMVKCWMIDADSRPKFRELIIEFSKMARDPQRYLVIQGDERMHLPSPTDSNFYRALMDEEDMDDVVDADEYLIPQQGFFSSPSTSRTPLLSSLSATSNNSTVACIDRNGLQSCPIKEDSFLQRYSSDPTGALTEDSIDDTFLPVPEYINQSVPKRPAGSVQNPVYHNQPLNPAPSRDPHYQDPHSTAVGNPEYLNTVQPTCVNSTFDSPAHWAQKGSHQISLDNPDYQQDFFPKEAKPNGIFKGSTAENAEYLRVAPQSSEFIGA

CC(C)n1c(/C=C/C(O)CC(O)CC(=O)O)c(-c2ccc(F)cc2)c2ccccc21 (configuration not stated) [FLUVASTATIN]
Not Active: IC50 [1] | IC50 [2] | IC50 [3] | Ki [3] | IC50 (Cannabinoid receptor 1) | IC50 [4] | IC50 [5] | Ki [5] | IC50 (Adenosine receptor A1) | IC50 (Cathepsin G) | IC50 (Substance-P receptor) | IC50 (Glucocorticoid receptor) | IC50 [6] | Ki [6] | IC50 [7] | IC50 (Carbonic anhydrase 2) | IC50 [8] | Ki [8] | IC50 [9]

O=C1OCCN1/N=C/c1ccc([N+](=O)[O-])o1 [FURAZOLIDONE]
Not Active: IC50 [1] | IC50 [2] | IC50 [3] | Ki [3] | IC50 (Cannabinoid receptor 1) | IC50 [4] | IC50 [5] | Ki [5] | IC50 (Adenosine receptor A1) | IC50 (Cathepsin G) | IC50 (Substance-P receptor) | IC50 (Glucocorticoid receptor) | IC50 [6] | Ki [6] | IC50 [7] | IC50 (Carbonic anhydrase 2) | IC50 [8] | Ki [8] | IC50 [9]

NCC1(CC(=O)O)CCCCC1 [GABAPENTIN]
Not Active: IC50 [1] | IC50 [2] | IC50 [3] | Ki [3] | IC50 (Cannabinoid receptor 1) | IC50 [4] | IC50 [5] | Ki [5] | IC50 (Adenosine receptor A1) | IC50 (Cathepsin G) | IC50 (Substance-P receptor) | IC50 (Glucocorticoid receptor) | IC50 [6] | Ki [6] | IC50 [7] | IC50 (Carbonic anhydrase 2) | IC50 [8] | Ki [8] | IC50 [9]

CC[N+](CC)(CC)CCOc1cccc(OCC[N+](CC)(CC)CC)c1OCC[N+](CC)(CC)CC.[I-].[I-].[I-] [GALLAMINE TRIETHIODIDE]
Not Active: IC50 [1] | IC50 [2] | IC50 [3] | Ki [3] | IC50 (Cannabinoid receptor 1) | IC50 [4] | IC50 [5] | Ki [5] | IC50 (Adenosine receptor A1) | IC50 (Cathepsin G) | IC50 (Substance-P receptor) | IC50 (Glucocorticoid receptor) | IC50 [6] | Ki [6] | IC50 [7] | IC50 (Carbonic anhydrase 2) | IC50 [8] | Ki [8] | IC50 [9]

Nc1nc2c(ncn2COC(CO)CO)c(=O)[nH]1 [GANCICLOVIR]
Not Active: IC50 [1] | IC50 [2] | IC50 [3] | Ki [3] | IC50 (Cannabinoid receptor 1) | IC50 [4] | IC50 [5] | Ki [5] | IC50 (Adenosine receptor A1) | IC50 (Cathepsin G) | IC50 (Substance-P receptor) | IC50 (Glucocorticoid receptor) | IC50 [6] | Ki [6] | IC50 [7] | IC50 (Carbonic anhydrase 2) | IC50 [8] | Ki [8] | IC50 [9]

NCC(=O)O [GLYCINE]
Not Active: IC50 [1] | IC50 [2] | IC50 [3] | Ki [3] | IC50 (Cannabinoid receptor 1) | IC50 [4] | IC50 [5] | Ki [5] | IC50 (Adenosine receptor A1) | IC50 (Cathepsin G) | IC50 (Substance-P receptor) | IC50 (Glucocorticoid receptor) | IC50 [6] | Ki [6] | IC50 [7] | IC50 (Carbonic anhydrase 2) | IC50 [8] | Ki [8] | IC50 [9]

COC1=CC(=O)C[C@@H](C)[C@]12Oc1c(Cl)c(OC)cc(OC)c1C2=O [GRISEOFULVIN]
Not Active: IC50 [1] | IC50 [2] | IC50 [3] | Ki [3] | IC50 (Cannabinoid receptor 1) | IC50 [4] | IC50 [5] | Ki [5] | IC50 (Adenosine receptor A1) | IC50 (Cathepsin G) | IC50 (Substance-P receptor) | IC50 (Glucocorticoid receptor) | IC50 [6] | Ki [6] | IC50 [7] | IC50 (Carbonic anhydrase 2) | IC50 [8] | Ki [8] | IC50 [9]

C/C=C1\[C@H]2C=C(C)C[C@]1(N)c1ccc(=O)[nH]c1C2 [HUPERZINE A]
Not Active: IC50 [1] | IC50 [2] | IC50 [3] | Ki [3] | IC50 (Cannabinoid receptor 1) | IC50 [4] | IC50 [5] | Ki [5] | IC50 (Adenosine receptor A1) | IC50 (Cathepsin G) | IC50 (Substance-P receptor) | IC50 (Glucocorticoid receptor) | IC50 [6] | Ki [6] | IC50 [7] | IC50 (Carbonic anhydrase 2) | IC50 [8] | Ki [8] | IC50 [9]
